Marks after values point to notes of the source that are not given here. Peptide text beside a SMILES is read from it.
What was measured:
[1] = system: white mongrel male rats; test: Sub-acute toxicity, 90 days daily intramuscular administration; type: in vivo; settings: daily i.m. 90 days, doses exceeding the therapeutic one by 100-1000 times
Experimental: The study of sub-acute toxicity was performed on 60 white mongrel male rats with body weight of 160-240 g. […] Morphology and properties of the animals' peripheral blood were studied before the administration of the substance, as well as on the 30th, 60th and 90th day after the beginning of the administration. Upon completion of the experiment biochemical and coagulologic indices of the blood were also evaluated.

[2] = system: vascular wall explants; test: Development of vascular wall explants (area index); type: cell-based, Wistar rats
Experimental: The experiments were conducted on 32 fragments of vascular wall from the peripheral artery of Wistar rats with body weight of 150-200 g. Nutritional medium for explants cultivation consisted of 35% Eagle's solution, 25% calf fetal serum, 35% Hanx solution, 5% chicken embryonic extract, with the addition of glucose (0.6%), insulin (0,5 units/ml), penicillin (100 units/ml), glutamine (2 mM). […] Peptide H-Lys-Glu-Asp-OH was added into the medium, in the concentration of 1, 10, 100 and 200 ng/ml.
Area index (AI), i.e. the ratio of total explant area together with the growth zone to the initial area of vascular wall fragment served as the criterion of biologic activity. AI values were expressed in percent, control AI values being considered as 100%.

[3] = system: rats with experimental parodontitis; test: Microcirculation in rats with experimental parodontitis (gingiva biomicroscopy, laser dopplerography); type: in vivo; parameters: capillaries density per area unit: unit not given here; settings: for diameter of the capillaries: in µm
Experimental: The experiments were conducted on 45 white mongrel male and female rats with body weight of 180-200 g. The model of light parodontitis was induced by the method of differentiated feeding of rats with standard granulated PK-120 forage for 1.5 months.
The animals were divided into 3 groups 15 rats in each: the animals of the first group, suffering from parodontitis didn't receive any treatment, rats in the second group suffering from experimental parodontitis were injected with 0.1 ml of sterile 0.9% NaCl solution into the mucous of the gingiva transitional fold (control); the animals of the third group with experimental parodontitis were subjected to a daily single injection of H-Lys-Glu-Asp-OH peptide in the dose of 2 μg in the 0.1 ml of sterile 0,9% NaCl solution into the mucous gingiva transitional fold with simultaneous rubbing in of peptide solution for 10 days.
During all experiments there was conducted a biomicroscopy of mucous membrane of the rats gingiva under nembutal anaesthesia with usage of contact object lenses and estimated the blood flow rate in capillaries by means of laser capillary blood flow analyzer LAKK-01. The studies were conducted in 3 areas of the gingiva, in the free gingiva, attached gingiva and transitional fold in case of 100 magnification. Clinical signs of the parodontitis were evaluated visually.

[4] = system: skin capillaries of patients with hypovitaminosis; test: Skin capillary resistance in patients with hypovitaminosis (Rumpel-Leede-Konchalovskiy cuff test); type: in vivo
Experimental: The study was conducted on 25 patients aged 19-35, reporting signs of hypovitaminosis in spring. The patients were randomly divided into 2 groups.
The patients of the main group were divided into three sub-groups depending on the hypovitaminosis severity. Patients suffering from the severe hypovitaminosis were subjected to a daily single intramuscular injection of pharmaceutical composition containing H-Lys-Glu-Asp-OH peptide as its active base, in the dose of 5.0 mg in 1.0 ml of sterile 0.9% NaCl solution for 10 days; patients with moderately sever hypovitaminosis—in the dose of 100.0 μg, and patients with mild signs of hypovitaminosis—in the dose of 1.0 μg.
Control group consisted of 18 patients, subjected to an injection of physiological solution following the same scheme. Both groups received only balanced vitamin containing diet.
The estimation of the H-Lys-Glu-Asp-OH peptide effect on resistance of skin capillaries was conducted by means of Rumpel-Leede-Konchalovskiy capillary fragility test. A blood-pressure cuff was applied to the upper part of the arm of the patients. Then there was maintained pressure up to 200 mmHg for 3 minutes. Skin capillary resistance was evaluated on the area of the dosed load on skin capillaries (under the cuff). Hemorrhages were counted with a help of the magnifying glass.
Skin capillary resistance was graded according to the five-point scale: […]

[5] = system: patients with purpura senilis; test: Hemostasis indices and Hess test in patients with purpura senilis; type: in vivo
Experimental: The study was conducted on 23 patients aged 70-82, suffering from purpura senilis, who complained of frequent spontaneous hemorrhages on the face, neck, forearms and hands. The patients reported progressive development of the disease.
The patients were randomly divided into two groups. The main group consisted of 12 patients, who were injected with pharmaceutical composition, containing peptide H-Lys-Glu-Asp-OH as its active base, in the dose of 100 μg in 1.0 ml of physiological solution daily intramuscularly for 10 days. Control group consisted of 11 patients, injected with sterile physiological solution following the same scheme.
Complains of the patients were analyzed in dynamics, also there were conducted general blood and urine tests, blood biochemical test. In order to study hemostasis there were made blood coagulogramm and Hess test with a tourniquet.

[6] = system: male guinea pigs; settings: in vivo
Experimental: (§1) The studies of chronic toxicity were conducted for 6 months, basing on the term of recommended clinical administration of the substance, on 96 male guinea pigs with body weight of 300-340 g. Experimental animals received the peptide daily, once a day, intramuscularly, for 6 months in the doses of 1 μg/kg, 0.1 mg/kg, 1 mg/kg in 0.5 ml of sterile 0.9% NaCl solution. Control animals received sterile 0.9% NaCl solution in the same volume and by the same schedule. Traditional methods were used for the evaluation of the following indices of the animals' peripheric blood: the quantity of erythrocytes, hemoglobin, reticulocytes, thrombocytes, leukocytes, leukocyte formula, erythrocyte sedimentation rate (ESR), erythrocyte resistance. Alongside with that, the content of total protein in the serum was identified using Lowry's method, as well as potassium and sodium content using the method of plasma spectrophotometry. Upon the completion of the experiment pathomorphologic studies of animal brain and spinal cord, spinal cord ganglia, thyroid gland, parathyroid glands, adrenal glands, testis, pituitary body, heart, lungs, aorta, liver, kidneys, urinary bladder, pancreas, stomach, small intestine, large intestine, thymus, spleen, lymph nodes and bone marrow were performed.

[7] = system: male guinea pigs; test: Chronic toxicity, 6 months daily intramuscular administration; peripheric blood morphology and biochemical indices; settings: long-term administration
Experimental: as §1

Structure (SMILES): NCCCCC(N)C(=O)NC(CCC(=O)O)C(=O)NC(CC(=O)O)C(=O)O (stereo not drawn) [H-Lys-Glu-Asp-OH, lysyl-glutamyl-asparagine acid] (H-Lys-Glu-Asp-OH; configuration not given here)
- side effects in long-term administration (subacute toxicity) [1]: absence of any side effects
- Area index (AI) growth as compared to the control AI ([2]; 100 ng/ml, 3rd day of cultivation, statistically significant): 24%
- effect on vascular wall explants after longer cultivation ([2]; 7 days of cultivating, same concentrations): same stimulating effect
- biomicroscopy of gingival mucous membrane ([3]; attached gingiva and transitional fold, 2 μg daily for 10 days): complete correction of the microcirculation
- index of microcirculation (IM) ([3]; attached gingiva, 2 μg daily for 10 days, NaCl control 0.63±0.04): 0.22±0.05
- diameter of the capillaries ([3]; attached gingiva, 2 μg daily for 10 days, NaCl control 9.8±0.35): 7.8±0.20
- blood flow rate (laser dopplerography) ([3]; attached gingiva, 2 μg daily for 10 days, NaCl control 17±0.7): 20±1.1 conv. units
- capillaries density per area unit ([3]; average of gingiva parts, 2 μg daily for 10 days, norm 29.3±2.3, NaCl control 30±1.5): 34±2.7
- diameter of the capillaries ([3]; free gingiva, 2 μg daily for 10 days, NaCl control 12.3±0.36 (μm printed only)): 8.2±0.1
- blood flow rate (laser dopplerography) ([3]; free gingiva, 2 μg daily for 10 days, norm 18±1.3, NaCl control 15±1.5): 20±0.9 conv. units
- index of microcirculation (IM) ([3]; free gingiva, 2 μg daily into gingiva for 10 days, normal 0.21±0.30, NaCl control 0.75±0.03): 0.29±0.15
- index of microcirculation (IM) ([3]; transitional fold, 2 μg daily for 10 days, NaCl control 0.39±0.02): 0.20±0.18
- diameter of the capillaries ([3]; transitional fold, 2 μg daily for 10 days, NaCl control 9.1±0.09): 6.57±0.1
- blood flow rate (laser dopplerography) ([3]; transitional fold, 2 μg daily for 10 days, NaCl control 19±1.2): 19±2.3 conv. units
- Cuff test indices ([4]; After administration, daily i.m. 1.0 μg, 100.0 μg or 5.0 mg by severity, 10 days, P < 0.05 vs before): II* (from 6 to 15)
- Cuff test indices ([4]; Before administration (baseline of the peptide group)): III-IV
- number of skin hemorrhages ([4]; before treatment, patients of both groups): 30-47
- number of skin hemorrhages ([4]; main group after the treatment, control group unchanged): 6-8
- Ethanol test ([5]; 100 μg daily i.m. 10 days, healthy 0, control 43.8): 14.3** % of the positive cases
- Fibrinogen ([5]; 100 μg daily i.m. 10 days, healthy 3.2 ± 0.4, control 2.9 ± 0.1): 2.5 ± 0.1 g/L
- Prothrombin time ([5]; 100 μg daily i.m. 10 days, healthy 12.5 ± 0.1, control 12.4 ± 0.4): 13.3 ± 0.1 s
- Thrombin time ([5]; 100 μg daily i.m. 10 days, healthy 18.2 ± 0.6, control 16.0 ± 0.2): 17.1 ± 0.2 c
- Activated partial thromboplastin time ([5]; 100 μg daily i.m. 10 days, healthy 32.3 ± 2.1, control 48.0 ± 1.3): 58.9 ± 0.7 s
- Euglobulin fibrinolysis ([5]; 100 μg daily i.m. 10 days, healthy 150.0 ± 6.8, control 163.5 ± 5.0): 156.2 ± 3.9 min
- Time of recalcification ([5]; 100 μg daily i.m. 10 days, healthy 178.0 ± 14.0, control 147.3 ± 4.2): 164.2 ± 2.4
- Hess test (vascular walls durability) ([5]; after administration of the pharmaceutical composition): reduction in the number of hemorrhages
- side effects in long-term administration (chronic toxicity) ([6]; guinea pig): absence of any side effects
- changes in guinea pig blood morphology and biochemical indices [6]: no statistically significant changes
- pathologic alterations (general status, blood indices, organ morphology, cardiovascular, respiratory, liver and kidney functions) [7]: no pathologic alterations

— US7851449B2, “Peptide, pharmaceutical composition, and a method of treating microcirculation disorders” (Obschestvo S Ogranichennoi Otvetstvennostyu “SIA Peptides”, priority 2006, dated 2010)
